Laboratory results published in ChEMBL document CHEMBL1795317, “Synthesis and antitubercular evaluation of amidoalkyl dibenzofuranols and 1H-benzo[2,3]benzofuro[4,5-e][1,3]oxazin-3(2H)-ones” (Bioorg Med Chem Lett, 2011).
≈ marks a conversion by molar mass, not a printed value.

Experiments:
[1] = system: Mycobacterium tuberculosis; test: Antimicrobial activity against Mycobacterium tuberculosis H37Rv ATCC 27294 after 28 days by agar dilution method; format: functional; conditions: H37Rv ATCC 27294, 672 h
[2] = Lipophilicity, log P of the compound; format: physicochemical; conditions: octanol/water

CC(=O)NC(c1ccccc1)c1c(O)ccc2oc3ccccc3c12 (stereo not given)
MIC [1]: 6.25 mg/L (≈ 18.9 µM) | logP [2]: 3

CC(=O)NC(c1ccc(Cl)cc1)c1c(O)ccc2oc3ccccc3c12 (stereo not given)
MIC [1]: 6.25 mg/L (≈ 17.1 µM) | logP [2]: 3.56

CC(=O)NC(c1ccc(Br)cc1)c1c(O)ccc2oc3ccccc3c12 (stereo not given)
MIC [1]: 6.25 mg/L (≈ 15.2 µM) | logP [2]: 3.83

COc1ccc(C(NC(C)=O)c2c(O)ccc3oc4ccccc4c23)cc1 (stereo not given)
MIC [1]: 6.25 mg/L (≈ 17.3 µM) | logP [2]: 2.87

COc1cc(C(NC(C)=O)c2c(O)ccc3oc4ccccc4c23)cc(OC)c1OC (stereo not given)
MIC [1]: 12.5 mg/L (≈ 29.7 µM) | logP [2]: 2.62

O=C(NC(c1ccc(Cl)cc1)c1c(O)ccc2oc3ccccc3c12)c1ccccc1 (stereo not given)
MIC [1]: 12.5 mg/L (≈ 29.2 µM) | logP [2]: 5.46

COc1cc(C(NC(=O)c2ccccc2)c2c(O)ccc3oc4ccccc4c23)cc(OC)c1OC (stereo not given)
MIC [1]: 12.5 mg/L (≈ 25.9 µM) | logP [2]: 4.52

NC(=O)NC(c1ccc(Cl)cc1)c1c(O)ccc2oc3ccccc3c12 (stereo not given)
MIC [1]: 3.13 mg/L (≈ 8.53 µM) | logP [2]: 3.23

NC(=O)NC(c1ccc(Br)cc1)c1c(O)ccc2oc3ccccc3c12 (stereo not given)
MIC [1]: 3.13 mg/L (≈ 7.61 µM) | logP [2]: 3.5

COc1ccc(C(NC(N)=O)c2c(O)ccc3oc4ccccc4c23)cc1 (stereo not given)
MIC [1]: 6.25 mg/L (≈ 17.2 µM) | logP [2]: 2.55

COc1cc(C(NC(N)=O)c2c(O)ccc3oc4ccccc4c23)cc(OC)c1OC (stereo not given)
MIC [1]: 12.5 mg/L (≈ 29.6 µM) | logP [2]: 2.29

O=C1NC(c2ccccc2)c2c(ccc3oc4ccccc4c23)O1 (stereo not given)
MIC [1]: 3.13 mg/L (≈ 9.93 µM) | logP [2]: 3.61

O=C1NC(c2ccc(Cl)cc2)c2c(ccc3oc4ccccc4c23)O1 (stereo not given)
MIC [1]: 1.56 mg/L (≈ 4.46 µM) | logP [2]: 4.16

O=C1NC(c2ccc(Br)cc2)c2c(ccc3oc4ccccc4c23)O1 (stereo not given)
MIC [1]: 1.56 mg/L (≈ 3.96 µM) | logP [2]: 4.43

COc1ccc(C2NC(=O)Oc3ccc4oc5ccccc5c4c32)cc1 (stereo not given)
MIC [1]: 6.25 mg/L (≈ 18.1 µM) | logP [2]: 3.48

COc1cc(C2NC(=O)Oc3ccc4oc5ccccc5c4c32)cc(OC)c1OC (stereo not given)
MIC [1]: 12.5 mg/L (≈ 30.8 µM) | logP [2]: 3.23

CC[C@@H](CO)NCCN[C@@H](CC)CO [ETHAMBUTOL]
MIC [1]: 3.13 mg/L (≈ 15.3 µM)

NNC(=O)c1ccncc1 [ISONIAZID]
MIC [1]: 0.1 mg/L (≈ 0.729 µM)

NC(=O)c1cnccn1 [PYRAZINAMIDE]
MIC [1]: 50 mg/L (≈ 406 µM)
